Experimental data from PubChem BioAssay AID588341 (The Scripps Research Institute Molecular Screening Center, 2011).
Activity calls are given as the source filed them. No rule for the calls is given here.

Target: Beta-lactamase (reporter enzyme, TEM-1 type bla) (UniProt Q932Y6)
Test: BLA reporter interference, concentration series – BLA reporter cells, FRET fluorescence, artefact control for TLR9-MyD88 binding inhibitor project, dose response (AID 588341)
Details: BLA reporter cell line, FRET fluorescence inhibition

Beta-lactamase (reporter enzyme, TEM-1 type bla), sequence (Q932Y6 1-286): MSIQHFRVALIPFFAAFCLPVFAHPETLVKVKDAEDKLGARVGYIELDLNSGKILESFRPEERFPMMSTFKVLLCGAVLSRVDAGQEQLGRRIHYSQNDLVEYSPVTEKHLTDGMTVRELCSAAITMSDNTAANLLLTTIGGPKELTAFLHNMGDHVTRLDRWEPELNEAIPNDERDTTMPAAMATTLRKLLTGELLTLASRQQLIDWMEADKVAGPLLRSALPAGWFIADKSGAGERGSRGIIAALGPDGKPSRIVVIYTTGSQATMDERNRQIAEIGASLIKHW

- IC50: inactive
Compound: COc1cc(/C=C/C(=O)/C=C(O)/C=C/c2ccc(O)c(OC)c2)ccc1O
